Assay results published in US20040063662A1, “Selenophene anti-tumor agents” (priority 1996, published 2004).

Tests used:
[1] = test system: CCRF-CEM; assay: NCI human tumor cell panel: CCRF-CEM (Leukemia); format: cell-based; settings: Leukemia; for GI50: read-out: Log10 GI50 (converted); for IC (TGI): read-out: Log10 TGI (converted)
[2] = test system: HL-60(TB); assay: NCI human tumor cell panel: HL-60(TB) (Leukemia); format: cell-based; settings: Leukemia; for GI50: read-out: Log10 GI50 (converted)
[3] = test system: MOLT-4; assay: NCI human tumor cell panel: MOLT-4 (Leukemia); format: cell-based; settings: MOLT-4, Leukemia; for GI50: read-out: Log10 GI50 (converted); for IC (TGI): read-out: Log10 TGI (converted)
[4] = test system: HOP-62; assay: NCI human tumor cell panel: HOP-62 (Non-Small Cell Lung Cancer); format: cell-based; settings: HOP-62, Non-Small Cell Lung Cancer; for GI50: read-out: Log10 GI50 (converted); for IC (TGI): read-out: Log10 TGI (converted)
[5] = test system: NCI-H226; assay: NCI human tumor cell panel: NCI-H226 (Non-Small Cell Lung Cancer); format: cell-based; settings: NCI-H226, Non-Small Cell Lung Cancer; for GI50: read-out: Log10 GI50 (converted); for IC (TGI): read-out: Log10 TGI (converted)
[6] = test system: NCI-H23; assay: NCI human tumor cell panel: NCI-H23 (Non-Small Cell Lung Cancer); format: cell-based; settings: NCI-H23, Non-Small Cell Lung Cancer; for GI50: read-out: Log10 GI50 (converted); for IC (TGI): read-out: Log10 TGI (converted)
[7] = test system: COLO 205; assay: NCI human tumor cell panel: COLO 205 (Colon Cancer); format: cell-based; settings: COLO 205, Colon Cancer; for GI50: read-out: Log10 GI50 (converted); for IC (TGI): read-out: Log10 TGI (converted)
[8] = test system: HCC-2998; assay: NCI human tumor cell panel: HCC-2998 (Colon Cancer); format: cell-based; settings: HCC-2998, Colon Cancer; for GI50: read-out: Log10 GI50 (converted); for IC (TGI): read-out: Log10 TGI (converted)
[9] = test system: HCT-116; assay: NCI human tumor cell panel: HCT-116 (Colon Cancer); format: cell-based; settings: HCT-116, Colon Cancer; for GI50: read-out: Log10 GI50 (converted); for IC (TGI): read-out: Log10 TGI (converted)
[10] = test system: HCT-15; assay: NCI human tumor cell panel: HCT-15 (Colon Cancer); format: cell-based; settings: HCT-15, Colon Cancer; for GI50: read-out: Log10 GI50 (converted); for IC (TGI): read-out: Log10 TGI (converted)
[11] = test system: HT29; assay: NCI human tumor cell panel: HT29 (Colon Cancer); format: cell-based; settings: HT-29, HT29, Colon Cancer; for GI50: read-out: Log10 GI50 (converted); for IC (TGI): read-out: Log10 TGI (converted)
[12] = test system: SW-620; assay: NCI human tumor cell panel: SW-620 (Colon Cancer); format: cell-based; settings: SW-620, Colon Cancer
[13] = test system: SF-268; assay: NCI human tumor cell panel: SF-268 (CNS Cancer); format: cell-based; settings: SF-268, CNS Cancer; for GI50: read-out: Log10 GI50 (converted); for IC (TGI): read-out: Log10 TGI (converted)
[14] = test system: SNB-75; assay: NCI human tumor cell panel: SNB-75 (CNS Cancer); format: cell-based; settings: SNB-75, CNS Cancer; for GI50: read-out: Log10 GI50 (converted); for IC (TGI): read-out: Log10 TGI (converted)
[15] = test system: U251; assay: NCI human tumor cell panel: U251 (CNS Cancer); format: cell-based; settings: U-251, U251, CNS Cancer; for GI50: read-out: Log10 GI50 (converted); for IC (TGI): read-out: Log10 TGI (converted)
[16] = test system: M14; assay: NCI human tumor cell panel: M14 (Melanoma); format: cell-based; settings: M14, Melanoma; for GI50: read-out: Log10 GI50 (converted); for IC (TGI): read-out: Log10 TGI (converted)
[17] = test system: SK-MEL-2; assay: NCI human tumor cell panel: SK-MEL-2 (Melanoma); format: cell-based; settings: SK-MEL-2, Melanoma; for GI50: read-out: Log10 GI50 (converted); for IC (TGI): read-out: Log10 TGI (converted)
[18] = test system: SK-MEL-5; assay: NCI human tumor cell panel: SK-MEL-5 (Melanoma); format: cell-based; settings: SK-MEL-5, Melanoma; for GI50: read-out: Log10 GI50 (converted); for IC (TGI): read-out: Log10 TGI (converted)
[19] = test system: UACC-62; assay: NCI human tumor cell panel: UACC-62 (Melanoma); format: cell-based; settings: UACC-62, Melanoma; for GI50: read-out: Log10 GI50 (converted); for IC (TGI): read-out: Log10 TGI (converted)
[20] = test system: CAKI-1; assay: NCI human tumor cell panel: CAKI-1 (Renal Cancer); format: cell-based; settings: CAKI-1, Renal Cancer; for GI50: read-out: Log10 GI50 (converted); for IC (TGI): read-out: Log10 TGI (converted)
[21] = test system: RXF-393; assay: NCI human tumor cell panel: RXF-393 (Renal Cancer); format: cell-based; settings: RXF-393, Renal Cancer; for GI50: read-out: Log10 GI50 (converted); for IC (TGI): read-out: Log10 TGI (converted)
[22] = test system: SN12C; assay: NCI human tumor cell panel: SN12C (Renal Cancer); format: cell-based; settings: Renal Cancer; for GI50: read-out: Log10 GI50 (converted); for IC (TGI): read-out: Log10 TGI (converted)
[23] = test system: DU-145; assay: NCI human tumor cell panel: DU-145 (Prostate Cancer); format: cell-based; settings: DU-145, Prostate Cancer; for GI50: read-out: Log10 GI50 (converted); for IC (TGI): read-out: Log10 TGI (converted)
[24] = test system: MCF7; assay: NCI human tumor cell panel: MCF7 (Breast Cancer); format: cell-based; settings: MCF7, Breast Cancer; for GI50: read-out: Log10 GI50 (converted); for IC (TGI): read-out: Log10 TGI (converted)
[25] = test system: MDA-MB-231/ATCC; assay: NCI human tumor cell panel: MDA-MB-231/ATCC (Breast Cancer); format: cell-based; settings: Homo sapiens, MDA-MB-231, MDA-MB-231/ATCC, Breast Cancer
[26] = test system: MDA-N; assay: NCI human tumor cell panel: MDA-N (Breast Cancer); format: cell-based; settings: Breast Cancer; for GI50: read-out: Log10 GI50 (converted); for IC (TGI): read-out: Log10 TGI (converted)
[27] = test system: T-47D; assay: NCI human tumor cell panel: T-47D (Breast Cancer); format: cell-based; settings: T47D, Breast Cancer; for GI50: read-out: Log10 GI50 (converted); for IC (TGI): read-out: Log10 TGI (converted)
[28] = test system: panel of sixty different human tumor cell lines; assay: NCI human tumor cell panel: whole panel (mean graph summary)
[29] = read-out: Log10 GI50 (converted)
[30] = read-out: Log10 TGI (converted)

Compound: O=Cc1ccc(-c2ccc(-c3ccc(C=O)[se]3)[se]2)[se]1 [NSC 675245]
- GI50 [1]: > 100 µM
- IC (TGI) [1]: > 100 µM
- GI50 [2]: > 100 µM
- IC (TGI) ([2]; read-out: Log10 TGI): > 100 µM
- GI50 [3]: > 100 µM
- IC (TGI) [3]: > 100 µM
- GI50 [4]: 51.3 µM
- IC (TGI) [4]: > 100 µM
- GI50 [5]: 0.977 µM
- IC (TGI) [5]: 3.63 µM
- GI50 [6]: > 100 µM
- IC (TGI) [6]: > 100 µM
- GI50 [7]: > 100 µM
- IC (TGI) [7]: > 100 µM
- GI50 [8]: 4.79 µM
- IC (TGI) [8]: > 100 µM
- GI50 [9]: 0.692 µM
- IC (TGI) [9]: > 100 µM
- GI50 [10]: > 100 µM
- IC (TGI) [10]: > 100 µM
- GI50 [11]: > 100 µM
- IC (TGI) [11]: > 100 µM
- GI50 [12, 29]: 4.17 µM
- IC (TGI) [12, 30]: > 100 µM
- GI50 [13]: > 100 µM
- IC (TGI) [13]: > 100 µM
- GI50 [14]: 10 µM
- IC (TGI) [14]: > 100 µM
- GI50 [15]: 1.05 µM
- IC (TGI) [15]: > 100 µM
- GI50 [16]: > 100 µM
- IC (TGI) [16]: > 100 µM
- GI50 [17]: > 100 µM
- IC (TGI) [17]: > 100 µM
- GI50 [18]: 72.4 µM
- IC (TGI) [18]: > 100 µM
- GI50 [19]: 0.0646 µM
- IC (TGI) [19]: > 100 µM
- GI50 [20]: 0.269 µM
- IC (TGI) [20]: 0.933 µM
- GI50 [21]: 12 µM
- IC (TGI) [21]: > 100 µM
- GI50 [22]: > 100 µM
- IC (TGI) [22]: > 100 µM
- GI50 [23]: > 100 µM
- IC (TGI) [23]: > 100 µM
- GI50 [24]: 1.48 µM
- IC (TGI) [24]: > 100 µM
- GI50 [25, 29]: > 100 µM
- IC (TGI) [25, 30]: > 100 µM
- GI50 [26]: > 100 µM
- IC (TGI) [26]: > 100 µM
- GI50 [27]: 15.8 µM
- IC (TGI) [27]: > 100 µM

Compound: O=Cc1ccc(-c2ccc(-c3ccc[se]3)[se]2)[se]1 [NSC 675244]
- GI50 [1]: 2.14 µM
- IC (TGI) [1]: 7.08 µM
- GI50 [2]: 2.45 µM
- GI50 [3]: 2.4 µM
- IC (TGI) [3]: 7.59 µM
- GI50 [4]: 12 µM
- IC (TGI) [4]: 29.5 µM
- GI50 [5]: 2.24 µM
- IC (TGI) [5]: 5.13 µM
- GI50 [6]: 13.5 µM
- IC (TGI) [6]: 30.9 µM
- GI50 [7]: 3.16 µM
- IC (TGI) [7]: 12 µM
- GI50 [8]: 2.51 µM
- IC (TGI) [8]: 11.5 µM
- GI50 [9]: 0.38 µM
- IC (TGI) [9]: 13.8 µM
- GI50 [10]: 7.41 µM
- IC (TGI) [10]: 26.3 µM
- GI50 [11]: 3.24 µM
- IC (TGI) [11]: 13.2 µM
- GI50 [13]: 4.47 µM
- IC (TGI) [13]: 57.5 µM
- GI50 [14]: 2 µM
- IC (TGI) [14]: 6.46 µM
- GI50 [15]: 0.316 µM
- IC (TGI) [15]: 13.8 µM
- GI50 [16]: 11.5 µM
- IC (TGI) [16]: 28.8 µM
- GI50 [17]: 16.6 µM
- IC (TGI) [17]: 45.7 µM
- GI50 [18]: 3.39 µM
- IC (TGI) [18]: 13.8 µM
- GI50 [19]: 0.0708 µM
- IC (TGI) [19]: 10.7 µM
- GI50 [20]: 0.204 µM
- IC (TGI) [20]: 0.708 µM
- GI50 [21]: 1.95 µM
- IC (TGI) [21]: 8.13 µM
- GI50 [22]: 10 µM
- IC (TGI) [22]: 22.4 µM
- GI50 [23]: 12.6 µM
- IC (TGI) [23]: 25.1 µM
- GI50 [24]: 0.479 µM
- IC (TGI) [24]: 11.5 µM
- GI50 [26]: 4.57 µM
- IC (TGI) [26]: 19.5 µM
- GI50 [27]: 11.2 µM
- IC (TGI) [27]: 23.4 µM
- GI50 ([28]; Homo sapiens, read-out: Log10 GI50, cell line not given (converted)): 3.8 µM
- CC50 ([28]; Homo sapiens, read-out: Log10 LC50, cell line not given (converted)): > 100 µM
- Log10 GI50 ([28]; cell line not given): −5.39
- Log10 TGI ([28]; cell line not given): −4.45
